One may read the EC50 as the concentration at which the effect is half-maximal. A low value points to an effect from little substance.

The nature of series [1]: Pharmacokinetics of Compound 2.2 applied i.v. It is filed as in vivo. The settings on record: mice (Balb/c), 5mg/kg i.v. As for the experimental part:
Pharmacokinetics of Compound 2.2 applied I.V. at dose 5mg/kg was determined in Balb/c mice. Plasma samples were precipitated with methanol (final concetration 70%) spiked with internal standard, the precipited proteins were removed by centrigugation and supernatant was evaporated. The analytes were dissolved in 100 µL of 10 mM CH3COONH4 by vortexing for 5 min. Compound 22 along with the corresponding internal standard were separated and detected using a liquid chromatograph Exion LC AD with tandem mass spectrometer QTrap 6500+ (both Sciex) equipped with a separation column Acquity BEH C18 1.7 µm, 50 × 2.1 mm, as well as a guard column 1.7 µm C18, 5 × 2.1 mm (both Waters). The mobile phase (A) used for separation consisted of 10 mM CH3COONH4 in deionized water, while mobile phase (B) was composed of 10 mM CH3COONH4 in methanol. […] Analytes were monitored through their specific multiple reaction monitoring (MRM) transitions by utilizing electrospray ionization (ESI) in a positive mode with the following parameters: 50 msec dwell time, entrance potential 10 V, ion source temperature 350°C, ion spray voltage 5.5 kV, curtain gas (40 psi), GS1 gas (50 psi), and GS2 gas (50 psi). Quantification of Compound 2.2 was conducted using a weighted calibration curve (1/x^2) with a structurally similar internal standard.

Series [2] concerns CT26 mouse colon carcinoma. The series is described as follows: CT26 mouse tumor model, intratumoral injection, tumor growth. It is filed as in vivo, BALB/c mice. The settings on record: 5mg/kg intratumorally on day 1, 4 and 8. As for the experimental part: The CT26 mouse colon carcinoma cell line was obtained from American Type Culture Collection (ATCC®, CRL-2638). The cells were cultured in RPMI-1640 medium containing 10% fetal bovine serum, 2 mM glutamine, 100 units/mL penicillin G sodium, and 100 µg/mL streptomycin sulfate at 37 °C in a humidified incubator with 5% CO2. On the day of tumor implantation in ten-week-old female BALB/c mice (Charles River Laboratories), CT26 cells harvested during the exponential growth phase were resuspended in phosphate-buffered saline (PBS) at a concentration of 1 × 10^7 cells/mL. Tumors were initiated by subcutaneous implantation of 1 × 10^6 CT26 cells (in a 0.1 mL suspension) into the right flank of each test animal. Tumor dimensions were measured in two directions, and tumor volumes were calculated using the formula (L × W^2)/2. Animals were pair matched when tumor reached volume 100 - 150 mm^3 (designated as day 1) and injected intratumorally (i.t.) on day 1, 4 and 8 with 5mg/kg or 1.5mg/kg Compound 2.2 or PBS in total volume 20 µL.

Series [3] concerns STING-dependent cytokine IP10 (CXCL10) in HCC1954 cells. Nature of the series: IP10 (CXCL10) induction in HCC1954 cells. It is filed as cell-based, human. The settings on record: free Warhead CDN, no antibody. As for the experimental part: HCC1954 and 293T reporter cells were cultured as previously described. HCC1954 cells, which naturally express both Her2 and TROP2, were seeded into collagen-coated 96-well plates at a density of 0.5×10^6 cells/ml (100 µl/well) in RPMI medium supplemented with 10% FBS and Penicillin/Streptomycin. The following day, the medium was completely removed, and serial dilutions of mAb2-CDN and mAb5-CDN conjugates in medium were added to the wells. Levels of the STING-dependent cytokine IP10 (CXCL10) induction were determined in the medium using ProcartaPlex Immunoassays after 24 hours of incubation following the manufacturer's protocol and measured on a MagPix instrument. […] Nonlinear regression curve fitting was applied for EC50 value calculations. The EC50 value represents the concentration of the payload CDN 2.2 conjugated to anti-Her2 mAb2 or anti-TROP2 mAb5 that results in half-maximal levels of IP-10. Twenty million 293T WT STING reporter cells were seeded into two T150 flasks, each containing 30 mL of DMEM with high glucose supplemented with 10% heat-inactivated FBS. One flask was designated for transfected cells, and the other served as a non-transfected control. After 24 hours, the cell culture medium was replaced with 27 mL of fresh media. […] A 50 µL mixture was transferred to white 96-well plates, and luminescence was measured using a TECAN reader.

On to `Nc1ncnc2c1ncn2[C@@H]1O[C@@H]2OCP(=O)(S)O[C@@H]3[C@H](F)[C@@H](COP(=O)(S)OC[C@H]2[C@H]1F)O[C@H]3n1cnc2c(=O)[nH]cnc21` (single isomer, unassigned) [Compound 2.2], for which, in series [1], the half-life result is on record as “less than 10 minutes”. Further, the “animals tumor free on day 65 (out twelve tumor bearing animals)” value in series [2] is recorded as “Twelve”. Further, the concentration giving a half-maximal response (EC50) in series [3] is 1700 nM.

The values are drawn from EP4610267A1, “CYCLIC DINUCLEOTIDES AND CONJUGATES THEREOF WITH ANTIBODIES” (priority 2024, dated 2025).
